Counter-ions that a name gives are not always drawn.
Assays:
[1] = biological target: T1, 5-HT1A receptor (Rattus norvegicus, UniProt P19327); experiment: Affinity for 5-HT1A receptors by displacement of (3H)8-OH-DPAT; format: binding; parameters: from tissue; host or cells: rat cerebral cortex membrane homogenate; conditions: for Ki: rat cerebral cortex, (3H)8-OH-DPAT displacement, read-out: pKi 5-HT1A (converted); for Selectivity 5-HT1A/D2: ratio of the affinity constants (Ki) D2/Ki (5-HT1A)
T1 sequence (P19327 1-422): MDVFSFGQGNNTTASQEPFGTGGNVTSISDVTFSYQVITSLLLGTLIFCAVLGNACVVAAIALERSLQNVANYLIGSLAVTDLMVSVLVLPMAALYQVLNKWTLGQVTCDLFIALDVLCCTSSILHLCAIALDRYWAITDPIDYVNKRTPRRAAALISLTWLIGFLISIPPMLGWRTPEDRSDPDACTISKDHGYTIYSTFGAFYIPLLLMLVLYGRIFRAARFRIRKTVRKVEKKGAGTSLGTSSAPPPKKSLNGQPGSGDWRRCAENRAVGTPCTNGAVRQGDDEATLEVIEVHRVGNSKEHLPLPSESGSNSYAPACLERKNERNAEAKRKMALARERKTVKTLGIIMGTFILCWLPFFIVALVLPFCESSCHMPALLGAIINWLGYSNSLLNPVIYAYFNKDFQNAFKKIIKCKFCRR
Procedure: 1—Measurement of the Affinity of the Compounds of the Invention for the 5-HT1A Receptors
The in vitro affinity of the compounds of the invention for 5-HT1A receptors was determined by measuring the displacement of (^3H)8-OH-DPAT (TRK 850; 160-240 Ci/mmol).
The study of the binding to the 5-HT1A receptor is carried out as described by Sleight and Peroutka (Naunyn-Schmiedeberg's Arch. Pharmaco., 1991, 343, 106). Rat cerebral cortices are used for these experiments. After thawing the brain in 50 mmol Tris-HCl buffer pH=7.40 at 25° C., the cerebral cortex is removed and homogenized in 20 volumes of buffer maintained at 4°C. The homogenate is centrifuged at 39,000×g for 10 minutes and the centrifugation pellet is suspended in the same volume of buffer and centrifuged again. After resuspending under the same conditions, the homogenate is incubated for 10 minutes at 37° C. and then centrifuged again. The final pellet is suspended in cold 50 mmol Tris-HCl reaction buffer, pH=7.40 at 25° C., containing 10 mmol of pargyline, 4 mmol of CaCl2 and 0.10% ascorbic acid. The final concentration of tissue in the incubation medium is 10 mg/tube.
The reaction tubes contain 0.10 ml of (^3H)8-OH-DPAT ([…]), 0.10 ml of test product 6-7 concentrations and 0.80 ml of tissue. The nonspecific binding is defined using 10 mmol of 5-HT. The reaction tubes are incubated at 23° C. for 30 minutes and their contents are then rapidly filtered under vacuum through Whatman GF/B filters and the tubes are rinsed with twice 5 ml of 50 mmol Tris-HCl buffer, pH=7.4 at 25° C. The radioactivity collected on the filter is analyzed by liquid scintillation by adding 4 ml of liquid scintillant (Emulsifier Safe, Packard). All the experiments are carried out in triplicate.
The inhibition constants (Ki) of the products of the invention are estimated from the displacement experiments using the nonlinear regression program RADLIG version 4 from EBDA (Equilibrium Binding Data Analysis) (Biosoft, Cambridge, UK, McPherson, 1985). The dissociation constants of the radioactive ligands used in the calculations are […] for (^3H)8-OH-DPAT and 0.036 mmol for (^3H)YM-09151-2. The pKi (−logKi) values are given in the form of the mean±SEM of at least 3 experiments.

[2] = biological target: T1, 5-HT1A receptor; experiment: 5-HT1A receptor agonist activity in vivo: lower lip retraction (LLR) after oral administration; parameters: Male Sprague Dawley rats (ICO:OFAD [IOPS], Iffa Credo, France); from tissue; host or cells: whole animal, male Sprague Dawley rats, oral dosing; conditions: rats, observed t55 to t65 min, doses as base weight, read-out: LLR p.o. ED50
Text: 3—Evaluation of the 5-HT1A Receptor Agonist Activity of the Compounds of the Invention In Vivo.
Male Sprague Dawley rats (ICO:OFAD [IOPS], Iffa Credo, France), weighing 160-180 g on arrival and 180-200 g at the start of the tests, are used. The animals are placed in quarantine for 4 to 8 days with free access to standardized laboratory food, before being used in the experiments. The animals are housed individually in plastic cages on cage holders (28 cm×21 cm×18 cm) with a grille floor (RC Iffa Credo), 24 hours before the tests. By means of an automatic dispenser, water filtered through a 0.22 μm filter is freely available. The quarantine area and the experiment laboratory are air conditioned (temperature: 22±1° C.; relative humidity: 55±5%) and illuminated from 7 a.m. to 7 p.m. All the rats are treated according to the ethics for laboratory animals (Guide for the Care and Use of Laboratory Animals, U.S. Department of Agriculture, Public Health Service, National Institutes of Health publication No. 85-23, Revised 1985) and the protocol (No. 15) is carried out in accordance with the recommendations of the local research animals ethics committee. […]
The behavior of the animal is observed for a period of 10 minutes each, centered at t60 minutes, after oral administration. […] The products are administered in a volume of 10 ml/kg and the doses are expressed as base weight. […]

melting point [°C] | Ki [1] [nM] | Selectivity 5-HT1A/D2 [1] | ED50 [2] [mg/kg] | SMILES
172 to 174 | – | – | – | O=C(c1ccc(F)c(Cl)c1)N1CCC(F)(CNCCc2ccccn2)CC1 (as salt: oxalate) [Example 1, (3-Chloro-4-fluorophenyl){4-fluoro-4-[(2-pyrid-2-ylethylamino)methyl]-l-piperidyl}methanone]
192 to 194 | – | – | – | O=C(c1ccc(Cl)c(Cl)c1)N1CCC(F)(CNCCc2ccccn2)CC1 (as salt: oxalate) [Example 2, (3,4-Dichlorophenyl){4-fluoro-4-[(2-pyrid-2-ylethylamino)methyl]-1-piperidyl}methanone]
– | 0.155 | 4 266 | 0.31 | O=C(c1ccc(F)c(Cl)c1)N1CCC(F)(CNCCc2ccccn2)CC1 [Example 1, (3-Chloro-4-fluorophenyl){4-fluoro-4-[(2-pyrid-2-ylethylamino)methyl]-l-piperidyl}methanone]
– | 0.38 | 1 318 | 0.31 | O=C(c1ccc(Cl)c(Cl)c1)N1CCC(F)(CNCCc2ccccn2)CC1 [Example 2, (3,4-Dichlorophenyl){4-fluoro-4-[(2-pyrid-2-ylethylamino)methyl]-1-piperidyl}methanone]

Reference: patent US6448268B1, “Aryl-{4-fluoro-4-[(2-pyridin-2-yl-ethylamino)-methyl]-piperidin-1-yl}-methanone derivatives as 5-ht1 receptor antagonists” (Pierre Fabre Medicament, priority 1998, dated 2002)
